Experimental data reported in patent US11542240B2, “STK19 inhibitors for treatment of cancer” (TRUSTEES OF BOSTON UNIVERSITY, priority 2018, dated 2023).
Like-named read-outs stand apart in the source and are kept apart here.

How the values were obtained:
Assay in all cases: biochemical
Type in all cases: binding
[1] = target: panel of 468 diverse kinases (Homo sapiens, UniProt P41240); conditions: CSK; 1000 nM; read-out: Percent Control
[2] = target: panel of 468 diverse kinases (Homo sapiens, UniProt Q02750); conditions: MEK1; 1000 nM; read-out: Percent Control
[3] = target: panel of 468 diverse kinases (Homo sapiens, UniProt O95382); conditions: ASK2; 1000 nM; read-out: Percent Control
[4] = target: panel of 468 diverse kinases (Homo sapiens, UniProt P33981); conditions: TTK; 1000 nM; read-out: Percent Control
[5] = target: panel of 468 diverse kinases (Homo sapiens, UniProt Q9H2G2); conditions: SLK; 1000 nM; read-out: Percent Control
[6] = target: panel of 468 diverse kinases (Homo sapiens, UniProt P00519, M351T); conditions: ABL1(M351T)-phosphorylated; 1000 nM; read-out: Percent Control
[7] = target: panel of 468 diverse kinases (Homo sapiens, UniProt Q09013); conditions: DMPK; 1000 nM; read-out: Percent Control
[8] = target: panel of 468 diverse kinases (Homo sapiens, UniProt O94921); conditions: PFTK1; 1000 nM; read-out: Percent Control
[9] = target: panel of 468 diverse kinases (Homo sapiens, UniProt Q00532); conditions: CDKL1; 1000 nM; read-out: Percent Control
[10] = target: panel of 468 diverse kinases (Homo sapiens, UniProt P31152); conditions: ERK4; 1000 nM; read-out: Percent Control
[11] = target: panel of 468 diverse kinases (Homo sapiens, UniProt P35968); conditions: VEGFR2; 1000 nM; read-out: Percent Control
[12] = target: panel of 468 diverse kinases (Homo sapiens, UniProt Q15746); conditions: MYLK; 1000 nM; read-out: Percent Control
[13] = target: panel of 468 diverse kinases (Homo sapiens, UniProt P23458); conditions: 1000 nM, read-out: Percent Control
[14] = target: panel of 468 diverse kinases (Homo sapiens, UniProt Q12851); conditions: MAP4K2; 1000 nM; read-out: Percent Control
[15] = target: panel of 468 diverse kinases (Homo sapiens, UniProt Q13131); conditions: AMPK-alpha1; 1000 nM; read-out: Percent Control
[16] = target: panel of 468 diverse kinases (Homo sapiens, UniProt Q15139); conditions: PRKD1; 1000 nM; read-out: Percent Control
[17] = target: panel of 468 diverse kinases (Homo sapiens, UniProt Q13705); conditions: ACVR2B; 1000 nM; read-out: Percent Control
[18] = target: panel of 468 diverse kinases (Homo sapiens, UniProt Q04771); conditions: ACVR1; 1000 nM; read-out: Percent Control
[19] = target: panel of 468 diverse kinases (Homo sapiens, UniProt P43405); conditions: SYK; 1000 nM; read-out: Percent Control
[20] = target: panel of 468 diverse kinases (Homo sapiens, UniProt P00533, L858R/T790M); conditions: EGFR(L858R, T790M); 1000 nM; read-out: Percent Control
[21] = target: panel of 468 diverse kinases (Homo sapiens, UniProt Q9BUB5); conditions: MKNK1; 1000 nM; read-out: Percent Control
[22] = target: panel of 468 diverse kinases (Homo sapiens, UniProt Q9HCP0); conditions: CSNK1G1; 1000 nM; read-out: Percent Control
[23] = target: panel of 468 diverse kinases (Homo sapiens, UniProt Q00536); conditions: PCTK1; 1000 nM; read-out: Percent Control
[24] = target: panel of 468 diverse kinases (Homo sapiens, UniProt Q02763); conditions: TIE2; 1000 nM; read-out: Percent Control
[25] = target: panel of 468 diverse kinases (Homo sapiens, UniProt P36888); conditions: 1000 nM, read-out: Percent Control
[26] = target: panel of 468 diverse kinases (Homo sapiens, UniProt P49674); conditions: CSNK1E; 1000 nM; read-out: Percent Control
[27] = target: panel of 468 diverse kinases (Homo sapiens, UniProt P07947); conditions: YES; 1000 nM; read-out: Percent Control
[28] = target: panel of 468 diverse kinases (Homo sapiens, UniProt P53355); conditions: DAPK1; 1000 nM; read-out: Percent Control
[29] = target: panel of 468 diverse kinases (Homo sapiens, UniProt Q16816); conditions: PHKG1; 1000 nM; read-out: Percent Control
[30] = target: panel of 468 diverse kinases (Homo sapiens, UniProt Q8N4C8); conditions: MINK; 1000 nM; read-out: Percent Control
[31] = target: panel of 468 diverse kinases (Homo sapiens, UniProt P42685); conditions: FRK; 1000 nM; read-out: Percent Control

panel of 468 diverse kinases (Homo sapiens, UniProt P36888), sequence (P36888 27-993 limits assumed): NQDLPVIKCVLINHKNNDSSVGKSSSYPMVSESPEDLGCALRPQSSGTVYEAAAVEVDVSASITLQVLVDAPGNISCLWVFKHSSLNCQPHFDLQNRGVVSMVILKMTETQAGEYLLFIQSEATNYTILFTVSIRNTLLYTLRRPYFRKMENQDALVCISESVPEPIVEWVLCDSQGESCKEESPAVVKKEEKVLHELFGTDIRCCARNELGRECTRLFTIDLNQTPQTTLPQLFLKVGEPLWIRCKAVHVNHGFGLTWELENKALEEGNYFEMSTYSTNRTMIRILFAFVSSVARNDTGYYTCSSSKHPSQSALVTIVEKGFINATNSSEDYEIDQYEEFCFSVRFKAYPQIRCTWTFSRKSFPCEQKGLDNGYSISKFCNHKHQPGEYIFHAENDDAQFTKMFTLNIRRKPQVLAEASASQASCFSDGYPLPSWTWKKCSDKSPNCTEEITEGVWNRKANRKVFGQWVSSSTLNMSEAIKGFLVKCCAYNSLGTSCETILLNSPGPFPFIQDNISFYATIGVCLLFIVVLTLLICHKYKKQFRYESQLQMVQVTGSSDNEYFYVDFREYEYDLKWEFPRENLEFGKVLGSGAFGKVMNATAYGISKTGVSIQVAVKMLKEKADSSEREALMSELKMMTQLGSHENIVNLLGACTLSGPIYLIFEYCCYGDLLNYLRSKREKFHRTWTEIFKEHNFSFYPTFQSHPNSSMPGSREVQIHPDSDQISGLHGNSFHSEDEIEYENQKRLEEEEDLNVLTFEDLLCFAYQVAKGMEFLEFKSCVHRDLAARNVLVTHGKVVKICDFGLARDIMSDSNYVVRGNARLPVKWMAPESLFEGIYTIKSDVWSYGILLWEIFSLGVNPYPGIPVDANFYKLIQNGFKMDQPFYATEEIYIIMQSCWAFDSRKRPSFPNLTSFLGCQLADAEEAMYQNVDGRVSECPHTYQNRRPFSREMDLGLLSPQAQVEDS
panel of 468 diverse kinases (Homo sapiens, UniProt P41240), sequence (P41240 2-450 limits assumed): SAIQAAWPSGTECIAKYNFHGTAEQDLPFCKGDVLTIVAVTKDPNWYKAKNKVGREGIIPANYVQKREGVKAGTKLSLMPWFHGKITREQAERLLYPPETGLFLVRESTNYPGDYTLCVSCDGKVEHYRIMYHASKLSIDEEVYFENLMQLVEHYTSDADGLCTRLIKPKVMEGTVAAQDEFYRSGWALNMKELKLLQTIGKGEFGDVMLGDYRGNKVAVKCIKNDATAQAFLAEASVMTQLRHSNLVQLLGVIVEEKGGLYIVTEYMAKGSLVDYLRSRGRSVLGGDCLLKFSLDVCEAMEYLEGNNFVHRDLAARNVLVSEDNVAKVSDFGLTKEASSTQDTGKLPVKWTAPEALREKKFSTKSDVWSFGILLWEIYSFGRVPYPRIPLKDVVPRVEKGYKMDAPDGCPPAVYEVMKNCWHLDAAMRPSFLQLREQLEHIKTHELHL
panel of 468 diverse kinases (Homo sapiens, UniProt Q02763), sequence (Q02763 23-1124 limits assumed): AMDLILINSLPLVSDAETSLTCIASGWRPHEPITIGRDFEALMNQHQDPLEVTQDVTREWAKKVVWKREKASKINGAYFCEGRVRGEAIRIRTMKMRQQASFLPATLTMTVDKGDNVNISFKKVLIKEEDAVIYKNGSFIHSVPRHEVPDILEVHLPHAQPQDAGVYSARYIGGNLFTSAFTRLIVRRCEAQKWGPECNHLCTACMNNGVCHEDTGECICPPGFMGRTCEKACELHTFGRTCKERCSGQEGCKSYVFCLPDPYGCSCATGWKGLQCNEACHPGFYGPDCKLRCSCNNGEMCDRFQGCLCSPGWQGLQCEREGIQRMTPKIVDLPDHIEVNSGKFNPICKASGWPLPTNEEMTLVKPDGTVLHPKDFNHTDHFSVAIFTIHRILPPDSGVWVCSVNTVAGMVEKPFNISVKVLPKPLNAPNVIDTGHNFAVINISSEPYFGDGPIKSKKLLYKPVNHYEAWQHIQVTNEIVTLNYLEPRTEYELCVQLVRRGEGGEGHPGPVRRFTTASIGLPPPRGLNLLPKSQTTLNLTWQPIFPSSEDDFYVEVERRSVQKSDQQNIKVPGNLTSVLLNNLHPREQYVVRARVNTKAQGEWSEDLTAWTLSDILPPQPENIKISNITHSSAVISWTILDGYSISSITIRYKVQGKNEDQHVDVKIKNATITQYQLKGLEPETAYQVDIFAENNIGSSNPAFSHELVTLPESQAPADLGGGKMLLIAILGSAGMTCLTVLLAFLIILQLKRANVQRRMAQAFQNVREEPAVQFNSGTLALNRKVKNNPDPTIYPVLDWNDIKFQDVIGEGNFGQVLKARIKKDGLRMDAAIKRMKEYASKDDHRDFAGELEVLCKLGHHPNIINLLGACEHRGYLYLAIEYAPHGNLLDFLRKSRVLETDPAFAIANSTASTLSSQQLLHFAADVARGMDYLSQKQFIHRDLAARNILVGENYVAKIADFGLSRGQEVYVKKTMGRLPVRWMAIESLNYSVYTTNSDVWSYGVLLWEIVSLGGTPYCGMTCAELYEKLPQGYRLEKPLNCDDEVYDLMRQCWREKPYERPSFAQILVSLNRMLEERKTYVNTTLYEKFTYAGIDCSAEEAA
panel of 468 diverse kinases (Homo sapiens, UniProt Q13705), sequence (Q13705 19-512 limits assumed): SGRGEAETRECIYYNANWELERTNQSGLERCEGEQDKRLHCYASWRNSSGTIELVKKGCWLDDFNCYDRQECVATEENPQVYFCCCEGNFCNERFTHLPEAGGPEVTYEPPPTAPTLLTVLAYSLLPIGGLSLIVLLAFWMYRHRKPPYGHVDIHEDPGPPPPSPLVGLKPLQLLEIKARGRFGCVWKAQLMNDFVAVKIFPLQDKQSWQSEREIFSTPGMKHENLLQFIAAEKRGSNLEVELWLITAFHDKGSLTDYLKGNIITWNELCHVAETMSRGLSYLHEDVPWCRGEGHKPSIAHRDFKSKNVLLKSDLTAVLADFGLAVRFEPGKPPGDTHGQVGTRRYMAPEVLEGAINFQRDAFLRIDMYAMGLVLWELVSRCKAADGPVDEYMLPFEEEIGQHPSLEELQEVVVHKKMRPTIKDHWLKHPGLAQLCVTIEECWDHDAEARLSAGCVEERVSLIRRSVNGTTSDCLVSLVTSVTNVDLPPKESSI
panel of 468 diverse kinases (Homo sapiens, UniProt P00533, L858R/T790M), sequence (P00533 25-1210 T790M/L858R limits assumed): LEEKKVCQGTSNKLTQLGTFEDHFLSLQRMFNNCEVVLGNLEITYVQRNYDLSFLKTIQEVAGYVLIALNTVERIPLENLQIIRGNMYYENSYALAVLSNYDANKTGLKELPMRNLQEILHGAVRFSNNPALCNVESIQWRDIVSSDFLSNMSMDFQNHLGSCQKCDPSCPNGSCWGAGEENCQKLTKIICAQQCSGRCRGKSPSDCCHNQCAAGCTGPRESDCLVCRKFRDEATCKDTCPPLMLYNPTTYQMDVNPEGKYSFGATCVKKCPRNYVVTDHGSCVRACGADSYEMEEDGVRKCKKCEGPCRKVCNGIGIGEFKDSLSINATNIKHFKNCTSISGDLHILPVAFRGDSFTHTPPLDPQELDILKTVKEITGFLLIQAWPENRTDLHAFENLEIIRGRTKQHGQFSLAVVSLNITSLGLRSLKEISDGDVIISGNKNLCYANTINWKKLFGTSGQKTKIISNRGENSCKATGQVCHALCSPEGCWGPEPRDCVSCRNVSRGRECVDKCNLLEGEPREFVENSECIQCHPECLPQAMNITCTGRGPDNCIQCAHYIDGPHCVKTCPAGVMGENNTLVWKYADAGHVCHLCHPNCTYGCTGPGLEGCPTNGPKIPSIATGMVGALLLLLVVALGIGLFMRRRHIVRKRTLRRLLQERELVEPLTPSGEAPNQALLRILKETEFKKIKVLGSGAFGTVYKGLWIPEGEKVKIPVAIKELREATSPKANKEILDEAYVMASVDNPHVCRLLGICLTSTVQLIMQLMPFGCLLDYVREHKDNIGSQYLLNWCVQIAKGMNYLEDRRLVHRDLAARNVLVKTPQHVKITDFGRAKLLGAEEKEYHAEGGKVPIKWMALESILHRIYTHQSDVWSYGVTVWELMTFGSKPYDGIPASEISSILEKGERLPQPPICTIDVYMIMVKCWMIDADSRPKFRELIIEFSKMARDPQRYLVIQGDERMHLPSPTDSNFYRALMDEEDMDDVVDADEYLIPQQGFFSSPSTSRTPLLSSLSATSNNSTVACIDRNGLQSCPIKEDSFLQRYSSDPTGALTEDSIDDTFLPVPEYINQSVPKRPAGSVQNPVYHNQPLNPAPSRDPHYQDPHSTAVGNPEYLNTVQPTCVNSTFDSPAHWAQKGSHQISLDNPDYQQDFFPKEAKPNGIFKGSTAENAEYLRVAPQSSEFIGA
panel of 468 diverse kinases (Homo sapiens, UniProt Q04771), sequence (Q04771 21-509 limits assumed): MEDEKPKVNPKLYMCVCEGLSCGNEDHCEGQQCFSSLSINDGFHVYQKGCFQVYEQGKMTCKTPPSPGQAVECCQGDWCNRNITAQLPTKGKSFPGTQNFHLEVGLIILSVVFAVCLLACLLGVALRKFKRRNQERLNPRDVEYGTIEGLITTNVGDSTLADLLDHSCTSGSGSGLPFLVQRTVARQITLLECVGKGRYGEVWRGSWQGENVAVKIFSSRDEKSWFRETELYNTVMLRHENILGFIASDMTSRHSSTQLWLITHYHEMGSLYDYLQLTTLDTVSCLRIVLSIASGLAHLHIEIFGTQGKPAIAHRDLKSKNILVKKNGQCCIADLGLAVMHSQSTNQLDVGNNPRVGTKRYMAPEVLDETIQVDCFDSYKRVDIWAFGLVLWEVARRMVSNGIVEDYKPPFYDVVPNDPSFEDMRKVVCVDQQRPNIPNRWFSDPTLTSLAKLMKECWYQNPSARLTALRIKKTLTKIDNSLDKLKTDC

COc1cc2nc(NC3CC3)nc(NC3CCN(C(C)C)CC3)c2cc1OC [Formula IV]
remaining activity at 1 µM [1]: 98%
remaining activity at 1 µM [2]: 63%
remaining activity at 1 µM [3]: 93%
remaining activity at 1 µM [4]: 85%
remaining activity at 1 µM [5]: 100%
remaining activity at 1 µM [6]: 59%
remaining activity at 1 µM [7]: 99%
remaining activity at 1 µM [8]: 98%
remaining activity at 1 µM [9]: 53%
remaining activity at 1 µM [10]: 91%
remaining activity at 1 µM [11]: 45%
remaining activity at 1 µM [12]: 49%
remaining activity at 1 µM ([13]; JAK1(JH1domain-catalytic)): 96%
remaining activity at 1 µM ([13]; JAK1(JH2domain-pseudokinase)): 51%
remaining activity at 1 µM [14]: 87%
remaining activity at 1 µM [15]: 92%
remaining activity at 1 µM [16]: 100%
remaining activity at 1 µM [17]: 76%
remaining activity at 1 µM [18]: 100%
remaining activity at 1 µM [19]: 99%
remaining activity at 1 µM [20]: 35%
remaining activity at 1 µM [21]: 100%
remaining activity at 1 µM [22]: 100%
remaining activity at 1 µM [23]: 43%
remaining activity at 1 µM [24]: 100%
remaining activity at 1 µM ([25]; FLT3-autoinhibited): 51%
remaining activity at 1 µM ([25]; FLT3): 100%
remaining activity at 1 µM [26]: 100%
remaining activity at 1 µM [27]: 100%
remaining activity at 1 µM [28]: 99%
remaining activity at 1 µM [29]: 90%
remaining activity at 1 µM [30]: 69%
remaining activity at 1 µM [31]: 100%
